The source of these data is patent US6066656A, “2,5-diamino-3,4-disubstituted-1,6-diphenylhexane isosteres comprising benzamide, sulfonamide and anthranilamide subunits and methods of using same” (The United States of America as represented by the …, priority 1998, dated 2000).

For orientation: pKi means the Ki on a negative log10 scale, so that one unit is a factor of ten.

Holding throughout (assay type): biochemical
In assay [1] the target is T1, HIV-1 protease (wild-type, WT) (Human immunodeficiency virus type 1 group M subtype B, UniProt P04585).
T1 construct: purified HIV-1 protease (wild-type, WT)
Description: Inhibition of purified wild-type HIV-1 protease (fluorogenic substrate cleavage), Ki and % inhibition. Here is the method: (§1) The inhibition constants (Ki) for the compounds of the above examples were determined using purified HIV-1 protease (wild-type, WT) (Tables I, II, IV and V) and R8Q and V82I mutant HIV-1 proteases (Table III). Ki is an inhibition constant of a given compound as derived by enzyme kinetics. A low Ki represents a high affinity of the compound for the enzyme, i.e., tight binding or low dissociation. Inhibition of the cleavage was assayed using a fluorogenic substrate available from Molecular Probes, Inc., Eugene, Oreg., and described in Kageyama et al., Antimicrob. Agents. Chemother., 37, 272 (1993), and a fluorogenic substrate available from Bachem California, Torrance, Calif., and described in Kageyama et al. (1993), supra. The inhibitory potencies of these compounds are set forth in Tables I-V. Percent inhibition is the percentage inhibition of an enzyme's activity by a given compound at a given concentration.

The target in assay [2] is T2, V82I mutant HIV-1 protease (Human immunodeficiency virus type 1 group M subtype B, UniProt P04585, V570I).
T2 construct: R8Q and V82I mutant HIV-1 proteases
Description: Inhibition of V82I mutant HIV-1 protease (fluorogenic substrate cleavage). Particulars: Table III. Here is the method: as §1

Assay [3] deals with T3, R8Q mutant HIV-1 protease (Human immunodeficiency virus type 1 group M subtype B, UniProt P04585, R496Q).
T3 construct: R8Q and V82I mutant HIV-1 proteases
Kind of assay: Inhibition of R8Q mutant HIV-1 protease (fluorogenic substrate cleavage). The following applies: Table III. Here is the method:
as §1

[4] abbreviates: Table III, wild-type HIV protease, read-out: Ki WT.
The mark [5] stands for this setting: Table V, spread wrapped on the next line: DN-1 ± 0.6, DN-4 ± 0.09, DN-5 ± 1.3, DN-6B ± 0.3, DN-10 ± 0.007, DN-11 ± 0.1, read-out: Ki.

pKi: −log10 of the molar value. Where two headings read alike, the source gives them in different places.

With `O=C(N[C@@H](Cc1ccccc1)[C@@H](O)[C@H](O)[C@H](Cc1ccccc1)NC(=O)c1ccccc1)c1ccccc1` [Compound 6], in assay [1] (read-out: % inhib), the inhibition at 10 µM turned out to be 55%. Consider `O=C(Nc1c(O)cccc1C(=O)N[C@@H](Cc1ccccc1)[C@H](O)[C@H](O)[C@H](Cc1ccccc1)NC(=O)c1cccc(O)c1NC(=O)OCc1ccccc1)OCc1ccccc1` [Compound 33], for which, in assay [1] (Table IV, read-out: Ki), the pKi is 7.70. For `O=C(N[C@@H](Cc1ccccc1)C[C@H](O)[C@H](Cc1ccccc1)NC(=O)c1cccc(O)c1)c1cccc(O)c1` [Compound 24], the “inhibition of HIV PR (in words)” value in assay [1] is given as “did not improve the inhibitory potencies”. In addition, the pKi in assay [1] (Table II, read-out: Ki) is 7.60; in assay [1] (setting [4]), 7.60; in assay [2], 7.02; in assay [3], 7.47.

Consider `Nc1cccc(C(=O)N[C@@H](Cc2ccccc2)C[C@H](O)[C@H](Cc2ccccc2)NC(=O)c2cccc(N)c2)c1` [Compound 25], for which the “inhibition of HIV PR (in words)” value in assay [1] is on record as “did not improve the inhibitory potencies”. Also, the pKi in assay [1] (Table II, read-out: Ki) was 8.22. `O=C(Nc1ncccc1C(=O)N[C@@H](Cc1ccccc1)[C@H](O)[C@H](O)[C@H](Cc1ccccc1)NC(=O)c1cccnc1NC(=O)OCc1ccccc1)OCc1ccccc1` [Compound 30]: the pKi in assay [1] (Table IV, read-out: Ki) is 8.52.

`CC(C)(C)OC(=O)Nc1ccc(C(=O)N[C@@H](Cc2ccccc2)[C@@H](O)[C@@H](O)[C@H](Cc2ccccc2)NC(=O)OCc2ccccc2)cc1` [DN-5]: the negative-log Ki (pKi) in assay [1] (setting [5]) was 7.80. With `CC(C)(C)OC(=O)Nc1ccc(C(=O)N[C@@H](Cc2ccccc2)[C@@H](O)[C@@H](O)[C@H](Cc2ccccc2)NC(=O)c2ccccc2NC(=O)OCc2ccccn2)cc1` [DN-6], the inhibition at 1 µM in assay [1] (Table V, @ 1 μM, read-out: % inhibition (printed after % Inhib. Conc.)) was determined as 15%. Moreover, in assay [1] (Table V, @ 10 NM (so in the source)), the “% Inhib. Conc.” value stood at 40%.

In the case of `O=C(N[C@@H](Cc1ccccc1)[C@H](O)[C@H](O)[C@H](Cc1ccccc1)NC(=O)c1cc(O)c2ccccc2n1)c1cc(O)c2ccccc2n1` [Compound 21], the “inhibition of HIV PR (in words)” value in assay [1] was “diminished binding”. Also, the inhibition at 10 µM in assay [1] (read-out: % inhib) came to 31%. With `O=C(N[C@@H](Cc1ccccc1)[C@H](O)[C@H](O)[C@H](Cc1ccccc1)NC(=O)c1cccc(OCCOc2ccccc2)c1)c1cccc(OCCOc2ccccc2)c1` [Compound 19], the inhibition at 10 µM in assay [1] (read-out: % inhib) came out at 9%. For the compound `CC(=O)Nc1ccccc1C(=O)N[C@@H](Cc1ccccc1)[C@H](O)[C@H](O)[C@H](Cc1ccccc1)NC(=O)c1ccccc1NC(C)=O` [Compound 26], the pKi is 7.39 in assay [1] (Table IV, read-out: Ki) and 7.39 in assay [1] (read-out: Ki).

Take `O=C(N[C@@H](Cc1ccccc1)[C@@H](O)[C@H](O)[C@H](Cc1ccccc1)NC(=O)c1cccnc1)c1cccnc1` [Compound 23]: in assay [1] (Table II, read-out: Ki), the pKi was 6.40. In the case of `O=C(N[C@@H](Cc1ccccc1)[C@@H](O)[C@H](O)[C@H](Cc1ccccc1)NC(=O)c1ccccc1O)c1ccccc1O` [Compound 11], the “inhibition of HIV PR (in words)” value in assay [1] is “dramatic loss in enzyme inhibitory potency”. Moreover, the inhibition at 10 µM came out at 66% in assay [1] (at 10 μM, read-out: % inhibition) and 66% in assay [1] (read-out: % inhib). On to `O=C(N[C@@H](Cc1ccccc1)[C@@H](O)[C@H](O)[C@H](Cc1ccccc1)NC(=O)c1ccc(O)cc1)c1ccc(O)cc1` [Compound 10], for which the pKi in assay [1] (Table II, read-out: Ki) is 6.48; in assay [1] (read-out: Ki), 6.48. Consider `O=C(CO)Nc1ccccc1C(=O)N[C@@H](Cc1ccccc1)[C@H](O)[C@H](O)[C@H](Cc1ccccc1)NC(=O)c1ccccc1NC(=O)CO` [Compound 29], for which the pKi in assay [1] (Table IV, read-out: Ki) was 7.39. On the same count and under the same terms, under `O=C(Nc1c(Cl)cccc1C(=O)N[C@@H](Cc1ccccc1)[C@H](O)[C@H](O)[C@H](Cc1ccccc1)NC(=O)c1cccc(Cl)c1NC(=O)OCc1ccccc1)OCc1ccccc1` [Compound 32] stands 7.04. Take `O=C(Cc1cccc(O)c1)N[C@@H](Cc1ccccc1)[C@H](O)[C@H](O)[C@H](Cc1ccccc1)NC(=O)Cc1cccc(O)c1` [Compound 5a]: the “inhibition of HIV PR (in words)” value in assay [1] is given as “small improvements in inhibition of HIV PR”. In addition, in assay [1] (Table I, read-out: Ki), the pKi is 5.52. In the case of `CCOC(=O)Nc1ccccc1C(=O)N[C@@H](Cc1ccccc1)[C@H](O)[C@H](O)[C@H](Cc1ccccc1)NC(=O)c1ccccc1NC(=O)OCC` [Compound 28], the inhibition at 10 µM in assay [1] (Table IV, @ 10 μM, read-out: % inhibition) was found to be 41%.

For the compound `O=C(Cc1ccccc1)N[C@@H](Cc1ccccc1)[C@H](O)[C@H](O)[C@H](Cc1ccccc1)NC(=O)Cc1ccccc1` [Compound 5], the “inhibition of HIV PR (in words)” value in assay [1] is listed as “weak inhibitor of HIV PR”. Also, in assay [1] (read-out: % inhib), the inhibition at 10 µM was 38%. Take `O=C(Nc1ccccc1C(=O)N[C@@H](Cc1ccccc1)C[C@H](O)[C@H](Cc1ccccc1)NC(=O)c1ccccc1NC(=O)OCc1ccccc1)OCc1ccccc1` [Compound 35]: in assay [1] (Table IV, read-out: Ki), the pKi is 8.92.

In the case of `O=C(Nc1ccccc1C(=O)N[C@@H](Cc1ccccc1)[C@@H](O)[C@@H](O)[C@H](Cc1ccccc1)NC(=O)c1cccc(O)c1)OCc1ccccn1` [ND-4], the pKi in assay [1] (setting [5]) was 9.15. As to `O=C(NC(Cc1ccccc1)C(O)C(O)C(Cc1ccccc1)NC(=O)c1cccc(O)c1)c1cccc(O)c1` (stereo not drawn) [Compound 9], the pKi in assay [1] (Table II, read-out: Ki) was 7.37.

Consider `O=C(N[C@@H](Cc1ccccc1)[C@H](O)[C@H](O)[C@H](Cc1ccccc1)NC(=O)c1ccc(O)c(O)c1)c1ccc(O)c(O)c1` [Compound 12], for which the pKi in assay [1] (Table II, unit nm [sic], read-out: Ki) is 7.10; in assay [1] (setting [4]), 7.10; in assay [2], 6.63; in assay [3], 7.40. Turning to `O=C(Nc1ccccc1C(=O)N[C@@H](Cc1ccccc1)[C@H](O)[C@H](O)[C@H](Cc1ccccc1)NC(=O)c1cccc(O)c1)OCc1ccccn1` [DN-4], the negative-log Ki (pKi) in assay [1] (setting [5]) was 8.77. `Cc1cc(O)cc(C(=O)N[C@@H](Cc2ccccc2)[C@H](O)[C@H](O)[C@H](Cc2ccccc2)NC(=O)c2cc(C)cc(O)c2)c1` [Compound 14]: the pKi in assay [1] (Table II, read-out: Ki) was 6.00. With `O=C(N[C@@H](Cc1ccccc1)[C@@H](O)[C@H](O)[C@H](Cc1ccccc1)NC(=O)c1cccc(O)c1)c1cccc(O)c1` [Compound 8], in assay [1] (Table II, read-out: Ki), the pKi was 7.10. Consider `COCCOCCOc1cccc(C(=O)N[C@@H](Cc2ccccc2)[C@H](O)[C@H](O)[C@H](Cc2ccccc2)NC(=O)c2cccc(OCCOCCOC)c2)c1` [Compound 18], for which the inhibition at 10 µM in assay [1] (read-out: % inhib) was determined as 63%. As for `O=C(N[C@@H](Cc1ccccc1)[C@H](O)[C@H](O)[C@H](Cc1ccccc1)NC(=O)c1cccc(O)c1)c1cccc(O)c1` [Compound 7, (2S,3R,4S,5S)-2,5-bis[((3-hydroxyphenyl)carbonyl)amino]-3,4-dihydroxy-1,6-diphenyl-hexane], the “inhibition of HIV PR (in words)” value in assay [1] is given as “potent inhibitors of HIV PR”. Also, the pKi in assay [1] (Table II, read-out: Ki) is 7.66; in assay [1] (setting [4]) it was 7.66; in assay [1] (read-out: Ki), 7.66; in assay [2], 7.29; in assay [3] it was 7.44. Besides, in assay [1] (in general, R,S core compared with R,R core), the “relative potency, R,S vs R,R diol core (compounds 7 and 8)” value is recorded as “three times more potent”. With `Cc1cccc(C(=O)N[C@@H](Cc2ccccc2)[C@H](O)[C@H](O)[C@H](Cc2ccccc2)NC(=O)c2cccc(C)c2NC(=O)OCc2ccccc2)c1NC(=O)OCc1ccccc1` [Compound 31], the pKi in assay [1] (Table IV, read-out: Ki) was 7.92. For the compound `Cc1ccc(C(=O)N[C@@H](Cc2ccccc2)[C@H](O)[C@H](O)[C@H](Cc2ccccc2)NC(=O)c2ccc(C)c(O)c2)cc1O` [Compound 16], in assay [1] (Table II, read-out: Ki), the pKi was 6.88. With `O=C(N[C@@H](Cc1ccccc1)[C@H](O)[C@H](O)[C@H](Cc1ccccc1)NC(=O)c1cccc(O)c1)OCc1ccccc1` [DN-1], the pKi in assay [1] (setting [5]) was 7.92. In the case of `O=C(N[C@@H](Cc1ccccc1)[C@H](O)[C@H](O)[C@H](Cc1ccccc1)NC(=O)c1cc(=O)c2ccccc2o1)c1cc(=O)c2ccccc2o1` [Compound 20], the “inhibition of HIV PR (in words)” value in assay [1] was “diminished binding”. In addition, the inhibition at 10 µM in assay [1] (read-out: % inhib) worked out at 67%. As to `O=C(Cc1ccccc1O)N[C@@H](Cc1ccccc1)[C@H](O)[C@H](O)[C@H](Cc1ccccc1)NC(=O)Cc1ccccc1O` [Compound 5b], in assay [1], the “inhibition of HIV PR (in words)” value is listed as “small improvements in inhibition of HIV PR”. Also, the inhibition at 10 µM in assay [1] (read-out: % inhib) worked out at 66%. For `O=C(N[C@@H](Cc1ccccc1)[C@H](O)[C@H](O)[C@H](Cc1ccccc1)NC(=O)c1cccc([N+](=O)[O-])c1)c1cccc([N+](=O)[O-])c1` [Compound 22], the inhibition at 10 µM in assay [1] (read-out: % inhib) came out at 40%.

As for `O=C(N[C@@H](Cc1ccccc1)[C@H](O)[C@H](O)[C@H](Cc1ccccc1)NC(=O)c1cc(O)cc(O)c1)c1cc(O)cc(O)c1` [Compound 13], in assay [1] (Table II, read-out: Ki), the pKi was 6.15. On to `CC(C)(C)OC(=O)N[C@@H](Cc1ccccc1)[C@@H](O)[C@@H](O)[C@H](Cc1ccccc1)NC(=O)OCc1ccccc1` [DN-10], for which the negative logarithm of the Ki (pKi) in assay [1] (setting [5]) is 8.51. The same measure, in the same setting: under `Nc1ccc(C(=O)N[C@@H](Cc2ccccc2)[C@@H](O)[C@@H](O)[C@H](Cc2ccccc2)NC(=O)c2ccccc2NC(=O)OCc2ccccn2)cc1` [DN-6B] stands 8.18.
